Experimental data taken from the NIST ThermoML archive (doi:10.1021/acs.jced.6b00178).

Experiment: xn = mol fraction of the nth substance listed
Conditions: 100 kPa, Liquid; for viscosity: Concentric cylinders viscometry; for mass density: Vibrating tube method

CCCCn1cc[n+](C)c1.COP(=O)([O-])OC [1-butyl-3-methyl-1H-imidazolium dimethylphosphate] + CCCC[n+]1ccn(C)c1.O=S(=O)([N-]S(=O)(=O)C(F)(F)F)C(F)(F)F
Conditions	mass density, x2 = 0 [kg/m3]	mass density, x2 = 0.25 [kg/m3]	mass density, x2 = 0.501 [kg/m3]	mass density, x2 = 0.747 [kg/m3]	viscosity, x2 = 0 [mPa·s]	viscosity, x2 = 0.25 [mPa·s]	viscosity, x2 = 0.501 [mPa·s]	viscosity, x2 = 0.747 [mPa·s]
283.15 K	1168.4	1251	1325.1	1390.6	2315.6	1433.7	630.61	251.51
288.15 K	1164.9	1247	1320.6	1386	1454.6	930.25	433.3	183.6
293.15 K	1161.4	1243.1	1316.2	1381.5	943.97	618.01	301.49	137.3
298.15 K	1157.9	1239.1	1312	1377	641.71	432.55	222.26	104.86
303.15 K	1154.3	1235.2	1307.8	1372.5	446.92	307.85	165.15	81.71
308.15 K	1150.9	1231.4	1303.7	1368.1	319.33	224.53	125.35	64.81
313.15 K	1147.6	1227.7	1299.7	1363.6	232.1	166.25	96.27	52.46
318.15 K	1144.3	1224.1	1295.6	1359.2	174.7	127.53	76.39	42.72
323.15 K	1141	1220.4	1291.6	1354.8	133.37	98.92	61.14	35.4
328.15 K	1137.8	1216.8	1287.6	1350.4	103.62	78.04	49.65	29.69
333.15 K	1134.6	1213.2	1283.5	1346	81.97	62.7	41.07	25.42
338.15 K	1131.4	1209.7	1279.5	1341.7	65.62	50.83	34.05	21.56
343.15 K	1128.3	1206.1	1275.6	1337.4	53.39	41.87	28.69	18.63
348.15 K	1125.1	1202.5	1271.6	1333.1	44.01	34.9	24.42	16.23
353.15 K	1122	1199	1267.7	1328.8	37.08	29.8	21.36	14.57
358.15 K	1118.9	1195.5	1263.7	1324.6	30.94	25.03	18.18	12.61
363.15 K	1115.7	1192	1259.9	1320.4	26.33	21.5	15.88	11.22

CC(=O)[O-].CCCCn1cc[n+](C)c1 [1-butyl-3-methylimidazolium acetate] + CCCC[n+]1ccn(C)c1.O=S(=O)([N-]S(=O)(=O)C(F)(F)F)C(F)(F)F
Conditions	mass density, x2 = 0 [kg/m3]	mass density, x2 = 0.25 [kg/m3]	mass density, x2 = 0.498 [kg/m3]	mass density, x2 = 0.749 [kg/m3]	viscosity, x2 = 0 [mPa·s]	viscosity, x2 = 0.25 [mPa·s]	viscosity, x2 = 0.498 [mPa·s]	viscosity, x2 = 0.749 [mPa·s]
283.15 K	1062.7	1193.2	1296.5	1381.4	1013.4	577.38	310.72	175.1
288.15 K	1059.4	1189.4	1292.2	1376.8	645.6	385.58	220.24	129.87
293.15 K	1056	1185.6	1288	1372.3	421.35	265.43	159.18	101.85
298.15 K	1052.8	1181.9	1283.8	1367.8	292.57	189.58	119.72	76.32
303.15 K	1049.7	1178.3	1279.7	1363.3	206.68	138.72	91.38	60.27
308.15 K	1046.6	1174.7	1275.7	1358.8	150.08	104	71.14	48.44
313.15 K	1043.5	1171.1	1271.6	1354.3	110.79	79.57	56.47	40.34
318.15 K	1040.5	1167.5	1267.5	1349.9	85.03	62.28	45.44	32.7
323.15 K	1037.5	1163.9	1263.5	1345.4	66.07	49.57	37.16	27.36
328.15 K	1034.5	1160.3	1259.4	1341	52.29	40.09	30.8	23.18
333.15 K	1031.5	1156.8	1255.4	1336.6	42.29	33.14	26.09	20.11
338.15 K	1028.5	1153.2	1251.4	1332.3	34.38	27.38	21.93	17.14
343.15 K	1025.6	1149.7	1247.5	1327.9	28.48	23.05	18.79	14.96
348.15 K	1022.6	1146.1	1243.5	1323.6	23.88	19.63	16.25	13.13
353.15 K	1019.7	1142.6	1239.6	1319.4	20.63	17.21	14.49	11.89
358.15 K	1016.7	1139.1	1235.7	1315.1	17.35	14.64	12.45	10.35
363.15 K	1013.9	1135.6	1231.8	1310.9	15	12.81	11.02	9.272
